What all share (assay): Example B2 herbicidal action, post-emergence, pots in glasshouse, damage score 0-10
Assay type in all cases: in vivo
Settings in all cases: application post-emergence, rate 1000 g/ha, evaluated after 13 days

Assay [1] has as its system Ipomea hederaceae. The procedure, abridged: (§1)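 Seedlings grown 8 days in a controlled glasshouse received a foliar spray of the compound formulated in 50:50 acetone/water plus 0.5% Tween 20; plant damage was assessed 13 days afterward.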
The subject of assay [2] is Echinochloa crus-galli. The method in brief: as §1
In assay [3] the test system is Amaranthus retroflexus. The procedure, abridged:
as §1

The test system of assay [4] is Setaria faberi. The method in brief: as §1
The test system of assay [5] is Solanum nigrum. The procedure, abridged: as §1

The structures appear in SMILES notation.

Turning to `CCN1c2nccnc2C(OC(=O)C(C)C)=C(c2ccccc2SC(F)(F)F)S1(=O)=O` [Compound C19, isobutyric acid 1-ethyl-2,2-dioxo-3-(2-trifluoromethyl-sulfanyl-phenyl)-1,2-dihydro-2-λ-6-thia-1,5,8-triaza-naphthalen-4-yl ester], the “IPOHE damage score (10=total damage to plant; 0=no damage to plant)” value in assay [1] amounted to 8. The “ECHCG damage score (10=total damage to plant; 0=no damage to plant)” value in assay [2] was 4. Besides, in assay [3], the “AMARE damage score (10=total damage to plant; 0=no damage to plant)” value was 9. Further, the “SETFA damage score (10=total damage to plant; 0=no damage to plant)” value in assay [4] turned out to be 0. The “SOLNI damage score (10=total damage to plant; 0=no damage to plant)” value in assay [5] was 6.
The matching figures for `CC(C)C(=O)OC1=C(c2cc(I)ccc2Cl)S(=O)(=O)N(CC(F)F)c2nccnc21` [Compound C54]: 8, 3, 6, 2 and 8.
The matching figures for `CCSC(=O)OC1=C(c2c(Cl)ccc(Cl)c2C(F)(F)F)S(=O)(=O)N(CC(F)F)c2nccnc21` [Compound C103]: 6, 7, 8, 6 and 9.
On the same counts, the results for `O=S1(=O)C(c2cccc(Cl)c2Cl)=C(O)c2nccnc2N1CC(F)F` [Compound D50] are 8, 1, 5, 2 and 10.
Take `C=CCN1c2nccnc2C(OC(=O)C(C)(C)C)=C(c2cc(Cl)ccc2C(F)(F)F)S1(=O)=O` [Compound C118]: the “IPOHE damage score (10=total damage to plant; 0=no damage to plant)” value in assay [1] came out at 4. Also, the “ECHCG damage score (10=total damage to plant; 0=no damage to plant)” value in assay [2] is 5. In assay [3], the “AMARE damage score (10=total damage to plant; 0=no damage to plant)” value stood at 6. Besides, the “SETFA damage score (10=total damage to plant; 0=no damage to plant)” value in assay [4] was determined as 4. Moreover, in assay [5], the “SOLNI damage score (10=total damage to plant; 0=no damage to plant)” value stood at 8.
As for `O=S1(=O)C(c2ccc(I)cc2Cl)=C(O)c2nccnc2N1CC(F)F` [Compound D59], the “IPOHE damage score (10=total damage to plant; 0=no damage to plant)” value in assay [1] stood at 4. Moreover, the “ECHCG damage score (10=total damage to plant; 0=no damage to plant)” value in assay [2] is 3. For the same molecule, in assay [3], the “AMARE damage score (10=total damage to plant; 0=no damage to plant)” value turned out to be 4. Moreover, in assay [4], the “SETFA damage score (10=total damage to plant; 0=no damage to plant)” value is 1. Besides, in assay [5], the “SOLNI damage score (10=total damage to plant; 0=no damage to plant)” value worked out at 8.
Take `O=S1(=O)C(c2cc(C(F)(F)F)ccc2Cl)=C(O)c2c(ncc[n+]2[O-])N1CC(F)F` [Compound E1, 3-(2-chloro-5-trifluoromethyl-phenyl)-1-(2,2-difluoro-ethyl)-2,2-dioxo-5-oxy-1,2-dihydro-2-λ-6-thia-1,5,8-triaza-naphthalen-4-ol]: the “IPOHE damage score (10=total damage to plant; 0=no damage to plant)” value in assay [1] is recorded as 7. For the same molecule, in assay [2], the “ECHCG damage score (10=total damage to plant; 0=no damage to plant)” value was 3. The “AMARE damage score (10=total damage to plant; 0=no damage to plant)” value in assay [3] came to 4. In addition, the “SETFA damage score (10=total damage to plant; 0=no damage to plant)” value in assay [4] was determined as 1. Also, the “SOLNI damage score (10=total damage to plant; 0=no damage to plant)” value in assay [5] was found to be 9.
On the same counts, the results for `O=S1(=O)C(c2cc(C(F)(F)F)ccc2C(F)(F)F)=C(O)c2nccnc2N1CC(F)F` [Compound D22] are 10, 7, 10, 6 and 10.
On the same counts, the results for `O=S1(=O)C(c2ccccc2Br)=C(O)c2nccnc2N1CC(F)F` [Compound D18] are 10, 4, 10, 5 and 10.
The matching figures for `CC#CCN1c2nccnc2C(O)=C(c2c(Cl)ccc(Cl)c2C(F)(F)F)S1(=O)=O` [Compound D48]: 7, 0, 3, 0 and 8.
For the molecule `C#CCN1c2nccnc2C(OC(=O)C(C)C)=C(c2c(Cl)ccc(Cl)c2C(F)(F)F)S1(=O)=O` [Compound C84], the “IPOHE damage score (10=total damage to plant; 0=no damage to plant)” value in assay [1] turned out to be 8. In addition, in assay [2], the “ECHCG damage score (10=total damage to plant; 0=no damage to plant)” value is reported as 7. In addition, the “AMARE damage score (10=total damage to plant; 0=no damage to plant)” value in assay [3] amounted to 9. Besides, the “SETFA damage score (10=total damage to plant; 0=no damage to plant)” value in assay [4] is listed as 7. The “SOLNI damage score (10=total damage to plant; 0=no damage to plant)” value in assay [5] is given as 10.
Consider `CCN1c2nccnc2C(O)=C(c2cccc(C(F)(F)F)c2Cl)S1(=O)=O` [Compound D38], for which the “IPOHE damage score (10=total damage to plant; 0=no damage to plant)” value in assay [1] is recorded as 5. In addition, the “ECHCG damage score (10=total damage to plant; 0=no damage to plant)” value in assay [2] came to 1. In addition, in assay [3], the “AMARE damage score (10=total damage to plant; 0=no damage to plant)” value was found to be 9. The “SETFA damage score (10=total damage to plant; 0=no damage to plant)” value in assay [4] worked out at 0. Also, the “SOLNI damage score (10=total damage to plant; 0=no damage to plant)” value in assay [5] amounted to 8.
On the same counts, the results for `COc1cccc(F)c1C1=C(OC(=O)C(C)C)c2nccnc2N(CC(F)F)S1(=O)=O` [Compound C137] are 8, 3, 7, 8 and 9.
`CCN1c2nccnc2C(OC(=O)C(C)(C)C)=C(c2cc(F)c(Cl)cc2Cl)S1(=O)=O` [Compound C45]: in assay [1], the “IPOHE damage score (10=total damage to plant; 0=no damage to plant)” value came to 9. Moreover, the “ECHCG damage score (10=total damage to plant; 0=no damage to plant)” value in assay [2] was found to be 4. Also, in assay [3], the “AMARE damage score (10=total damage to plant; 0=no damage to plant)” value is 0. Besides, the “SETFA damage score (10=total damage to plant; 0=no damage to plant)” value in assay [4] amounted to 1. For the same molecule, the “SOLNI damage score (10=total damage to plant; 0=no damage to plant)” value in assay [5] was 7.
On the same counts, the results for `CCN1c2nccnc2C(O)=C(c2ccc(Cl)cc2C(F)(F)F)S1(=O)=O` [Compound D10] are 9, 4, 9, 2 and 10.
The matching figures for `CC(C)(C)C(=O)OC1=C(c2ccc(Cl)cc2Cl)S(=O)(=O)N(CC(F)(F)F)c2nccnc21` [Compound C104]: 9, 6, 10, 3 and 10.

These data come from patent US8133849B2, “Herbicidal compounds” (Syngenta Limited, priority 2007, dated 2012).
